Measurements taken from article PMC3499488, “A Potential Peptide Therapeutic Derived from the Juxtamembrane Domain of the Epidermal Growth Factor Receptor” (PLoS ONE, 2012).
Read-outs that look alike come from different tables or passages of the source. Where a SMILES comes first, the peptide text is derived from it.

Legend:
MDA-MB-231 cells [1] = experiment: Cell viability assay (CellTiter-Glo); format: cell-based, human
Source text: Assays are run in triplicate.

MDA-MB-231 cells [2] = experiment: Cellular entry of FAM-labeled peptides, live-cell fluorescent confocal microscopy; format: cell-based, human; details: N-terminally FAM-labeled peptide, monitored up to 90 minutes and/or overnight incubation, confocal fluorescence
Description: MDA-MB-231 cells (1×10^5 cells per plate) were plated on 35 mm glass-bottom plates (MatTek Corporation, Ashland, MA), allowed to adhere overnight, then serum starved overnight and analyzed the following day in HBSS (Hank’s balanced salt solution). For real-time uptake of the FAM-labeled peptides, after recording background images, the FAM-labeled peptides were added and cells were imaged every two minutes over approximately 30 minutes. After 30 minutes, images were taken less frequently. Images from representative timepoints are shown. For overnight treatment, the cells were treated in serum-starved media, exchanged into HBSS the following day and imaged.

[3] = serum starved overnight (0.1% BSA, no FBS), 24 h treatment, CellTiter-Glo, mean ± S.D. of at least three independent experiments, read-out: EC50± S.D.

EC50 (MDA-MB-231 cells [1]; [3])	Structure (SMILES)	fluorescence within the interior of the cell (MDA-MB-231 cells [2])	also measured
–	CC[C@H](C)[C@H](NC(=O)[C@H](Cc1c[nH]cn1)NC(=O)[C@H](CCCNC(=N)N)NC(=O)[C@H](CCCNC(=N)N)NC(=O)[C@@H](N)CCCNC(=N)N)C(=O)N[C@H](C(=O)N[C@@H](CCCNC(=N)N)C(=O)N[C@@H](CCCCN)C(=O)N[C@@H](CCCNC(=N)N)C(=O)N[C@H](C(=O)N[C@@H](CC(C)C)C(=O)N[C@@H](CCCNC(=N)N)C(=O)N[C@@H](CCCNC(=N)N)C(=O)N[C@@H](CC(C)C)C(=O)N[C@@H](CC(C)C)C(=O)N[C@@H](CCC(N)=O)C(=O)N[C@@H](CCC(=O)O)C(=O)N[C@@H](CCCNC(=N)N)C(=O)O)[C@@H](C)O)C(C)C [E-64562] (H-RRRHIVRKRTLRRLLQER-OH)	–	EC50 (MDA-MB-231 cells [1]; 24 h): > 100 µM
–	CC[C@H](C)[C@H](NC(=O)[C@H](Cc1c[nH]cn1)NC(=O)[C@H](CCCNC(=N)N)NC(=O)[C@H](CCCNC(=N)N)NC(=O)[C@H](CCCNC(=N)N)NC(=O)c1ccc2c(c1)C(=O)OC21c2ccc(O)cc2Oc2cc(O)ccc21)C(=O)N[C@H](C(=O)N[C@@H](CCCNC(=N)N)C(=O)N[C@@H](CCCCN)C(=O)N[C@@H](CCCNC(=N)N)C(=O)N[C@H](C(=O)N[C@@H](CC(C)C)C(=O)N[C@@H](CCCNC(=N)N)C(=O)N[C@@H](CCCNC(=N)N)C(=O)N[C@@H](CC(C)C)C(=O)N[C@@H](CC(C)C)C(=O)N[C@@H](CCC(N)=O)C(=O)N[C@@H](CCC(=O)O)C(=O)N[C@@H](CCCNC(=N)N)C(=O)O)[C@@H](C)O)C(C)C [FAM-conjugated E-64562] (HELM PEPTIDE1{[O=C1OC2(c3ccc(O)cc3Oc3cc(O)ccc32)c2ccc(C(=O)[*:2])cc21].R.R.R.H.I.V.R.K.R.T.L.R.R.L.L.Q.E.R}$$$$V2.0)	did not display any fluorescence within the interior of the cell	–
–	N=C(N)NCCC[C@H](NC(=O)c1ccc2c(c1)C(=O)OC21c2ccc(O)cc2Oc2cc(O)ccc21)C(=O)N[C@@H](CCCCN)C(=O)N[C@@H](CCCCN)C(=O)N[C@@H](CCCNC(=N)N)C(=O)N[C@@H](CCCNC(=N)N)C(=O)N[C@@H](CCC(N)=O)C(=O)N[C@@H](CCCNC(=N)N)C(=O)N[C@@H](CCCNC(=N)N)C(=O)N[C@@H](CCCNC(=N)N)C(=O)NCC(=O)O [FAM-conjugated Tat, reference compound] (HELM PEPTIDE1{[O=C1OC2(c3ccc(O)cc3Oc3cc(O)ccc32)c2ccc(C(=O)[*:2])cc21].R.K.K.R.R.Q.R.R.R.G}$$$$V2.0)	did not display any fluorescence within the interior of the cell	–
–	CC[C@H](C)[C@H](NC(=O)[C@H](CCCNC(=N)N)NC(=O)[C@H](CC(C)C)NC(=O)[C@H](CC(C)C)NC(=O)[C@H](C)NC(=O)[C@H](CCC(N)=O)NC(=O)[C@H](CC(N)=O)NC(=O)[C@@H]1CCCN1C(=O)[C@H](C)NC(=O)[C@H](CCC(=O)O)NC(=O)CNC(=O)[C@H](CO)NC(=O)[C@@H]1CCCN1C(=O)[C@@H](NC(=O)[C@H](CC(C)C)NC(=O)[C@@H]1CCCN1C(=O)[C@H](CCC(=O)O)NC(=O)[C@@H](NC(=O)CNC(=O)[C@H](CCCNC(=N)N)NC(=O)[C@H](CCCNC(=N)N)NC(=O)[C@H](CCCNC(=N)N)NC(=O)[C@H](CCC(N)=O)NC(=O)[C@H](CCCNC(=N)N)NC(=O)[C@H](CCCNC(=N)N)NC(=O)[C@H](CCCCN)NC(=O)[C@H](CCCCN)NC(=O)[C@H](CCCNC(=N)N)NC(=O)c1ccc2c(c1)C(=O)OC21c2ccc(O)cc2Oc2cc(O)ccc21)C(C)C)[C@@H](C)O)C(=O)O [FAM-labeled TE-66482] (HELM PEPTIDE1{[O=C1OC2(c3ccc(O)cc3Oc3cc(O)ccc32)c2ccc(C(=O)[*:2])cc21].R.K.K.R.R.Q.R.R.R.G.V.E.P.L.T.P.S.G.E.A.P.N.Q.A.L.L.R.I}$$$$V2.0)	did not display any fluorescence within the interior of the cell	–
> 100 µM	CC[C@H](C)[C@H](NC(=O)[C@H](CCCNC(=N)N)NC(=O)[C@H](CC(C)C)NC(=O)[C@H](CCC(=O)O)NC(=O)[C@H](CCC(=O)O)NC(=O)[C@H](CC(C)C)NC(=O)[C@H](C)NC(=O)[C@H](CCCNC(=N)N)NC(=O)[C@H](CCC(=O)O)NC(=O)[C@H](CCC(=O)O)NC(=O)[C@@H](NC(=O)[C@H](CCCNC(=N)N)NC(=O)[C@H](C)NC(=O)[C@H](CCCNC(=N)N)NC(=O)[C@H](CCC(=O)O)NC(=O)[C@H](CCC(=O)O)NC(=O)CNC(=O)[C@H](CCCNC(=N)N)NC(=O)[C@H](CCCNC(=N)N)NC(=O)[C@H](CCCNC(=N)N)NC(=O)[C@H](CCC(N)=O)NC(=O)[C@H](CCCNC(=N)N)NC(=O)[C@H](CCCNC(=N)N)NC(=O)[C@H](CCCCN)NC(=O)[C@H](CCCCN)NC(=O)[C@@H](N)CCCNC(=N)N)C(C)C)C(=O)N[C@@H](CCC(=O)O)C(=O)N[C@@H](CCC(=O)O)C(=O)O [T-control] (H-RKKRRQRRRGEERARVEERALEELRIEE-OH)	–	–
> 100 µM	CC(C)C[C@H](NC(=O)[C@H](CC(C)C)NC(=O)[C@H](CCCNC(=N)N)NC(=O)[C@H](CCCNC(=N)N)NC(=O)[C@H](C)NC(=O)[C@H](C)NC(=O)[C@H](CCCNC(=N)N)NC(=O)[C@H](CCCCN)NC(=O)[C@H](CCCNC(=N)N)NC(=O)[C@H](C)NC(=O)[C@H](C)NC(=O)[C@H](Cc1c[nH]cn1)NC(=O)[C@H](CCCNC(=N)N)NC(=O)[C@H](CCCNC(=N)N)NC(=O)[C@H](CCCNC(=N)N)NC(=O)CNC(=O)[C@H](CCCNC(=N)N)NC(=O)[C@H](CCCNC(=N)N)NC(=O)[C@H](CCCNC(=N)N)NC(=O)[C@H](CCC(N)=O)NC(=O)[C@H](CCCNC(=N)N)NC(=O)[C@H](CCCNC(=N)N)NC(=O)[C@H](CCCCN)NC(=O)[C@H](CCCCN)NC(=O)[C@@H](N)CCCNC(=N)N)C(=O)N[C@@H](C)C(=O)N[C@@H](C)C(=O)N[C@@H](CCCNC(=N)N)C(=O)O [T-poly-Ala] (H-RKKRRQRRRGRRRHAARKRAARRLLAAR-OH)	–	–
> 100 µM	CC[C@H](C)[C@H](NC(=O)[C@H](CCCNC(=N)N)NC(=O)[C@H](CC(C)C)NC(=O)[C@H](CC(C)C)NC(=O)[C@H](C)NC(=O)[C@H](CCC(N)=O)NC(=O)[C@H](CC(N)=O)NC(=O)[C@@H]1CCCN1C(=O)[C@H](C)NC(=O)[C@H](CCC(=O)O)NC(=O)CNC(=O)[C@H](CO)NC(=O)[C@@H]1CCCN1C(=O)[C@@H](NC(=O)[C@H](CC(C)C)NC(=O)[C@@H]1CCCN1C(=O)[C@H](CCC(=O)O)NC(=O)[C@@H](NC(=O)CNC(=O)[C@H](CCCNC(=N)N)NC(=O)[C@H](CCCNC(=N)N)NC(=O)[C@H](CCCNC(=N)N)NC(=O)[C@H](CCC(N)=O)NC(=O)[C@H](CCCNC(=N)N)NC(=O)[C@H](CCCNC(=N)N)NC(=O)[C@H](CCCCN)NC(=O)[C@H](CCCCN)NC(=O)[C@@H](N)CCCNC(=N)N)C(C)C)[C@@H](C)O)C(=O)O [TE-66482] (H-RKKRRQRRRGVEPLTPSGEAPNQALLRI-OH)	–	–
> 100 µM	N=C(N)NCCC[C@H](NC(=O)[C@H](CCCNC(=N)N)NC(=O)[C@H](CCCNC(=N)N)NC(=O)[C@H](CCC(N)=O)NC(=O)[C@H](CCCNC(=N)N)NC(=O)[C@H](CCCNC(=N)N)NC(=O)[C@H](CCCCN)NC(=O)[C@H](CCCCN)NC(=O)[C@@H](N)CCCNC(=N)N)C(=O)NCC(=O)O [Tat, reference compound] (H-RKKRRQRRRG-OH)	–	–
